Laboratory results taken from ChEMBL document CHEMBL3137356, “MMV Box Cryptosporidium parvum screening set”.

Test system: Cryptosporidium parvum
Assay: MMV: Cryptosporidium parvum oocysts (Iowa Strain) were prepared for use by treatment with 10 mM HCl (37 degrees C, 10 min) followed by 2 mM sodium taurocholate in phosphate-buffered saline (PBS) with Ca2+ and Mg2+ (16 degrees C, 10 min) in order to stimulate excystation. The high-throughput screen was carried out by inoculating >90% confluent human ileocecal adenocarcinoma (HCT-8) cells (ATCC) with ~5.5 x 10^3 primed oocysts per well. Experimental compounds or DMSO (vehicle) were added three hours after infection, and cells were incubated for 48 hours.
Assay type: functional

SMILES | Inhibition
COc1ccc2c(c1)C1(Nc3ccccc3-c3nc4ccccc4n31)C(=O)N2 (stereo not drawn) | -27.19%
COc1cccc(Cn2c(Oc3ccccc3)nc3c2c(=O)n(C)c(=O)n3C)c1 | -39.36%
CCOc1cc(CNC(C)C(O)c2ccccc2)cc(Cl)c1OCC (stereo not drawn) | 29.95%
CCOc1c(Cl)cc(CNCC(O)c2ccccc2)cc1OC (stereo not drawn) | -11.22%
OC(CNCC1CCCO1)Cn1c2ccc(Cl)cc2c2cc(Cl)ccc21 (stereo not drawn) | -33.95%
COc1ccc2nc(C)cc(Nc3ccccc3O)c2c1 | -4.901%
CCn1nc(-c2ccc(C(=O)OC)cc2)nc2c(=O)n(C)c(=O)nc1-2 | -16.23%
CCOc1ccccc1CN1CCc2nc3cc(C(C)(C)C)nn3c(O)c2C1 | -3.69%
Cc1cc(N2CCCC2)nc(Nc2ccc(NC(=O)CCc3ccccc3)cc2)n1 | 13.46%
Cc1cc(NC(=O)c2cccc(C(F)(F)F)c2)n(-c2nc(-c3ccc4c(c3)OCO4)cs2)n1 | -22.88%
CN1CCN(c2ncnc3c2[nH]c2ccc(Cl)cc23)CC1 | -51.61%
CC1(c2ccccc2)Nc2ccccc2-c2nc3ccccc3n21 (stereo not drawn) | 30.85%
COc1cccc(C2(C)Nc3ccccc3-c3nc4ccccc4n32)c1 (stereo not drawn) | -28.25%
CC(C)CNC(=O)c1c(N)n(CCc2ccccc2F)c2nc3ccccc3nc12 | -31.92%
CC(C)(C)CC(C)(C)NCC(O)COc1ccc(Cl)cc1Cl (stereo not drawn) | 15.77%
Cc1cccc(-n2ncc3c(O)nc(-n4nc(C)cc4NC(=O)c4cc5ccccc5o4)nc32)c1 | 82.48%
O=C1c2ccccc2-c2nnc(-c3ccc(Br)cc3)cc21 | -13.35%
O=C(Nc1ccc(Br)cc1)Nc1cccc(Cl)c1 | -51.26%
CN(C)CCNc1cc(-c2ccccc2)nc2ccccc12 | -2.54%
Oc1ccccc1CN1CCC2(CCCN(Cc3ccccc3F)C2)C1 (stereo not drawn) | -2.723%
Cc1nc2ccccc2c(O)c1CC=C(Cl)Cl | -7.486%
COCCNCC(O)Cn1c2ccc(Cl)cc2c2cc(Cl)ccc21 (stereo not drawn) | -20.11%

SMILES | Inhibition
COc1ccc2nc(C)cc(Nc3ccc(Cl)cc3)c2c1 | -41.72%
O=C(NC1CCN(Cc2ccccc2)CC1)c1cc(-c2ccncc2)nc2ccc(Cl)cc12 | 13.62%
CCC(O)c1ccc(Br)cc1NC(=O)c1cccc(Cl)c1 (stereo not drawn) | 15.79%
COc1ccc2nc(C)cc(Nc3cccc(O)c3)c2c1.Cl | -14.76%
COc1cc2cc(C(=O)Nc3ccccc3)c(N)nc2cc1OC | -19.13%
CN(C)CCCNCc1ccc(-c2ccc(F)c(Cl)c2)o1.Cl | -9.329%
O=c1nc(C=Cc2ccc(Br)cc2)oc2ccccc12 | 36.68%
COc1ccc2nc(N)nc(C)c2c1 | 15.73%
CC(=O)c1ccc(NC(=O)CSc2nc(-c3ccccc3Cl)ns2)cc1 | 23.33%
Cc1sc2ncnc(Sc3nc4ccccc4[nH]3)c2c1C | 20.44%
COc1ccc(C(=O)NC(c2ccc(Cl)cc2Cl)c2cc(Cl)c3cccnc3c2O)cc1 (stereo not drawn) | 66.57%
CCC(=O)Nc1nnc(Cc2ccc(OC)c(OC)c2)s1 | 5.406%
O=C(O)C(=O)O.Oc1ccccc1CN1CCN(C(c2ccccc2)c2ccccc2)CC1 | -3.109%
O=C(NC1CCCC1)c1ccc(N2CCC(NCc3cccc(C(F)(F)F)c3)CC2)cc1 | -29.41%
CCN(CC)CCn1c(=N)n(CC(O)c2ccc(Cl)c(Cl)c2)c2ccccc21.Cl (stereo not drawn) | 14.91%
O=C(NCCCN1CCC(N2CCCCC2)CC1)C1=Cc2cc(Br)ccc2OC1 | -11.72%
CC(=O)Nc1nnc(SCc2c(C)cc(C(C)(C)C)cc2C)s1 | -2.709%
O=C(Nc1ccc(CN2CCOCC2)cc1)c1ccc(-c2cc(Cl)ccc2Cl)o1 | 9.568%
CN1CCN(c2c3c(c(C#N)c4nc5ccccc5n24)CCC3)CC1 | -1.609%
Cc1cc(Nc2cccc(F)c2)nc(NCc2ccccc2)n1 | -34.09%
CCOc1ccc(C2N(C)c3ccccc3N2C)cc1 | -19.63%
COc1cccc(C(=O)Nc2ccc(-c3nc4ccccc4[nH]3)cc2)c1 | -26.13%

SMILES | Inhibition
COCCn1c(C)nc2ccccc2c1=O | -17.93%
O=C(Nc1cccc(-c2nc3ccccc3[nH]2)c1)c1cccc(NC(=O)c2ccco2)c1 | 23.53%
O=C(NC1CCN(Cc2ccccc2)CC1)c1cc(-c2cccnc2)nc2ccc(Cl)cc12 | -40.68%
CCN(Cc1ccccc1)C1CCN(Cc2cc(Br)ccc2O)CC1.O=C(O)C(=O)O | -6.655%
COc1nc(Nc2ccc(C(C)C)cc2)nc(OC)n1 | 4.363%
CCN(CC)CCNc1ncnc2c1[nH]c1ccc(Br)cc12 | -47.02%
CCOc1cccc(C(=O)Nc2ccc(-c3nc4ccccc4[nH]3)cc2)c1 | -2.618%
Cl.Clc1cc(Br)ccc1-c1ccc(CNCC2CCNCC2)o1 | 26.78%
CCOC(=O)c1cnc2ccc(Cl)cc2c1NCCCN(C)C | 28.81%
CCOc1ccccc1NC(=O)CN1CCN(C(=O)c2ccco2)CC1 | -43.69%
O=C1c2ccccc2C2=Nc3ccccc3SC(c3cccc(F)c3)C12 (stereo not drawn) | -5.793%
Cc1ccccc1OCCSc1nc2ccc(NC(=O)c3ccccc3)cc2s1 | 17.58%
COc1ccc(-c2nonc2NC(=O)c2cccc(Cl)c2)cc1OC | 23.52%
Cc1cc(NC(=O)c2ccc(-c3ccccc3)cc2)no1 | 13.55%
CC(C)(C)C(=O)Nc1ccc(C(=O)Nc2cccc(-c3nc4ccccc4[nH]3)c2)cc1 | 18.85%
COc1ccc(-c2nonc2NC(=O)c2cccc(C)c2)cc1OC | 4.698%
O=C(Nc1ccc(N2CCN(Cc3ccccc3)CC2)cc1)c1cccs1.O=C(O)C(F)(F)F | -70.26%
O=C(Nc1ccc(N2CCCCC2)c(Cl)c1)c1ccc(Br)o1 | -27.15%
CCOc1cc2c(cc1OCC)C(c1cc(C)c(O)c(C)c1)NCC2.Cl (stereo not drawn) | 13.77%
O=C1CC(O)(C(F)(F)C(F)(F)F)Oc2ccccc21 (stereo not drawn) | 26.51%
COc1cc(SC)ccc1C(=O)N1CCCC(C)C1 (stereo not drawn) | -12.18%
CC(C)(C)c1ccc(C(=O)Nc2nc3ccccc3s2)cc1 | 63.38%

SMILES | Inhibition
CC(C)c1ccc(CNCC(O)c2ccccc2)cc1.Cl (stereo not drawn) | 13.18%
CC(C)(C)c1ccc(C(=O)Nc2c3c(nn2-c2cccc(Cl)c2)CSC3)cc1 | 7.325%
CC1CC(C)CN(C(=O)c2ccc(Cl)cc2Cl)C1 (stereo not drawn) | -45.44%
CCOc1cc2c(cc1OCC)C(c1cc(Cl)c(O)c(OCC)c1)NCC2 (stereo not drawn) | -10.58%
OC(CNC1CCCC1)Cn1c2ccccc2c2ccccc21 (stereo not drawn) | -40.56%
COc1ccc(N2CCN(C(CNC(=O)CC(C)(C)C)c3ccc4c(c3)OCO4)CC2)cc1 (stereo not drawn) | -20.28%
COc1ccc(C2N(C)c3ccccc3N2C)cc1 | -12.31%
CCCCCCn1c(=N)n(CC(O)COc2cccc(C)c2)c2ccccc21.Cl (stereo not drawn) | 6.838%
Cc1ccc(NC(=O)Nc2cccc(Cl)c2)cc1F | -0.4391%
CC(C)OCc1cc(CN2CCN(c3cccc(Cl)c3)CC2)c(O)c2ncccc12 | 54.97%
O=C(O)C(=O)O.Oc1ccc(Br)cc1CN1CCN(Cc2cccc(F)c2)CC1 | -34.58%
Oc1ccc(C(=C(Cl)Cl)c2ccc(O)cc2)cc1 | -24.26%
CC(C)(C)c1ccc2c(c1)CN(Cc1ccc(Cl)cc1)CO2 | -0.2226%
O=c1nc(C=Cc2ccc(Cl)cc2)oc2ccccc12 | 84.37%
O=C(NCc1ccco1)C1CCN(S(=O)(=O)c2ccc(Br)cc2)CC1 | 29.65%
CN(C)c1ccc(N2C(N)=NC(N)=NC2(C)C)cc1 | -33.57%
Clc1ccc2[nH]c3c(NCCCN4CCOCC4)ncnc3c2c1 | 37.37%
COc1ccc(Nc2nc(NCc3ccccc3)c3ccccc3n2)cc1 | 49.98%
COc1ccc(OC)c(C2C3=C(CC(C)(C)CC3=O)N(c3ccc(Cl)c(Cl)c3)C3=C2C(=O)CC(C)(C)C3)c1 | 2.896%
COc1ccc(CN2CCN(Cc3ccccc3)CC2)c(O)c1 | -9.592%
COc1cc2c(cc1OC)C1=NNC(=O)C1=NC(C)(C)C2 | -25.43%
Oc1c(CN2CCN(c3ccccc3F)CC2)cc(Br)c2cccnc12 | 61.72%

SMILES | Inhibition
Cl.OC(CNCc1ccccc1)Cn1c2ccccc2c2ccccc21 (stereo not drawn) | -37.25%
Oc1c2c(nc3cc(-c4ccccc4)nn13)CCCC2 | 37.02%
CCCCc1c(C)nc2c(OC)cccc2c1O | -24.29%
OC1CCCCC1C1(NC(=S)Nc2ccccc2)CCCCC1 (stereo not drawn) | 3.232%
OC1=C2C(=Nc3ccccc3SC2c2ccc(Br)cc2)c2ccccc21 (stereo not drawn) | 2.929%
Clc1ccc2c(N3CCCC3)ccnc2c1 | -28.37%
CCOC(=O)C1CCN(C(=O)CN2C(=O)c3ccccc3C2c2c[nH]c3ccccc23)CC1 (stereo not drawn) | 23.12%
CCOc1ccc(CCNC(=O)c2cccs2)cc1OCC | 10.2%
CCCN(CCC)CCCNC(=O)c1cc2c(-c3ccc(OC)c(OC)c3)nn(C)c2s1 | 32.69%
COc1ccc(C(=O)C2CC2c2ccc(Cl)cc2)cc1 (stereo not drawn) | -36.26%
Cc1cc(N2CCN(C3CCCC3)CC2)n2c(nc3ccccc32)c1C#N | -41.28%
CCCCCn1c(=N)n(CC(O)COc2cccc(C)c2)c2ccccc21.Cl (stereo not drawn) | -6.708%
O=c1c2c([nH]c3ccccc13)CCCC2 | 14.89%
CCCCOc1ccc(C(=O)Nc2cc(C)on2)cc1 | -8.82%
CCc1ccc(Nc2cc(C)nc3nc(C)nn23)cc1 | -3.889%
Br.CCN(CC)S(=O)(=O)c1ccc(-c2csc(Nc3ccc(C)c(C)c3)n2)cc1 | -28.35%
CCN1CCN(c2c(C(=O)c3ccccc3)cnc3cc(OC)c(OC)cc23)CC1 | -1.231%
Cc1c(C)n(CC(O)CNC2CCCCC2C)c2ccccc12 (stereo not drawn) | -20.79%
C=CCc1c(C)nc2ccccc2c1O | -10.8%
CCCCN(CCCC)S(=O)(=O)c1ccc(NC(=O)c2ccco2)cc1 | -29.51%
